Assay results reported in patent US20220259234A1, “COT MODULATORS AND METHODS OF USE THEREOF” (Gilead Sciences, Inc., priority 2019, published 2022).
≈ marks a conversion by molar mass, not a printed value. Like-named read-outs stand apart in the source and are kept apart here.

Experiments:
[1] = In vivo dog pharmacokinetics; settings: beagle dogs; for AUC0-72 h of the named analyte in plasma: label = analyte measured
Human plasma stability = format: in vitro ADME; settings: substrate 2 μM, read-out: Human Plasma T½
Protocol: (§1) Plasma stability assays were performed in human and dog. Duplicate sets were performed with a tecan liquid handler or with cluster tubes in a heat block. Generally, a substrate concentration of 2 μM was used. Plasma in sodium EDTA was provided by BioIVT as whole plasma with K2 EDA as anti-coagulent.

[2] = Solubility in FaSSIF and FeSSIF; format: physicochemical; settings: thermodynamic from solid
Protocol: Solubility was determined at ambient temperature in buffered fasted-state simulated intestinal fluid (FaSSIF, pH 6.5) and buffered fed-state simulated intestinal fluid (FeSSIF, pH 5.0) prepared in-house using BioRelevant Simulated Intestinal Fluid (SIF) powder. Solids were added to FaSSIF or FeSSIF in 1.5-mL Eppendorf tubes, sonicated for 1 minute, then agitated for 2.5 hours in an Eppendorf ThermoMixer C. To determine concentration in solution, the suspensions were centrifuged for 10 min at 14,800 rpm and supernatants were diluted to a volume of 1 mL with 1:1 v/v acetonitrile:water. All diluted supernatants were analyzed by UPLC using a Waters Acquity UPLC with a PDA UV detector.

Dog plasma stability = format: in vitro ADME; settings: substrate 2 μM, read-out: Dog Plasma T½
Protocol: as §1

[3] = oral powder in capsule, dosed Compound B 9.7 mg-eq/kg
[4] = fasted-state simulated intestinal fluid (FaSSIF), fassif, fasted-state simulated intestinal fluid pH 6.5, ambient temperature, read-out: FaSSIF (pH 6.5) solubility
[5] = fed-state simulated intestinal fluid (FeSSIF), fessif, fed-state simulated intestinal fluid pH 5.0, ambient temperature, read-out: FeSSIF (pH 5.0) solubility

Protocol for Dog GI S9 stability: (§2) GI S9 stability assays were performed. Generally, a substrate concentration of 2 μM was used, a protein concentration of 1.0 mg/mL intestinal S9 was used, and a reaction buffer of 1× phosphate buffered saline (PBS) was used. Intestinal S9 was provided by BioIVT (dog) or Xenotech (human). […] Plates were vortexed, and then centrifuged at 3000×G for 30 minutes. 150 μL of supernatant was transferred to new plates and 150 μL water was added. New plates were vortexed to mix.
(§3) Samples were analyzed with a Leap HTC Autosampler and a Dionex UltiMate 3000 HPLC system interfaced to a Thermo Q-Exactive mass spectrometer operation in positive ion electrospray mode. A Thermo Scientific Hypersil GOLD (1.9 μM particle size, 50×2.1 mm) HPLC column was used and mobile phase was pumped at 0.5 mL/min. Elution of analytes was achieved by a series of linear gradients of acetonitrile in water containing 0.1% (v/v) formic acid. Quantification was by analyte/internal standard peak area ratio (PAR).
Protocol for Human GI S9 stability: as §2, §3

half-life at 2 μM (Human GI S9 stability; intestinal S9) [min] | half-life at 2 μM (Dog GI S9 stability; intestinal S9) [min] | half-life at 2 μM (Human plasma stability) [min] | solubility at 2.5 h [2, 4] [µg/mL] | solubility at 2.5 h [2, 5] [µg/mL] | SMILES | also measured
477 | 528 |  |  |  | COC[C@@H](C)OC(=O)N(c1cc(C#N)c2ncc(C#N)c(N[C@H](C)C(C)(C)C)c2c1)[C@H](c1cn(C23CC(C2)C3)nn1)c1ccc(F)nc1C [Example 12, (R)-1-methoxypropan-2-yl ((S)-(1-(bicyclo[1.1.1]pentan-1-yl)-1H-1,2,3-triazol-4-yl)(6-fluoro-2-methylpyridin-3-yl)methyl)(3,8-dicyano-4-(((R)-3,3-dimethylbutan-2-yl)amino)quinolin-6-yl)carbamate] | 
 |  |  |  |  | Cn1ccc2c([C@@H](c3cn(C45CC(C4)C5)nn3)N(C(=O)OCCCOP(=O)(O)O)c3cc(Cl)c4ncc(C#N)c(NCC(C)(C)C)c4c3)cccc2c1=O [Compound C] | AUC0-72 h of the named analyte in plasma ([1]; oral 3 mg/mL solution, dosed Compound C 3 mg-eq/kg): BLQ; in vivo conversion of dosed compound ([1]; oral solution of Compound C, plasma over 72 hour): converted in vivo to both Compound D and Compound A in measurable amounts
 |  |  |  |  | Cn1ccc2c([C@@H](c3cn(C45CC(C4)C5)nn3)N(C(=O)OCO)c3cc(Cl)c4ncc(C#N)c(NCC(C)(C)C)c4c3)cccc2c1=O [Intermediate A] | AUC0-72 h of the named analyte in plasma [1, 3]: BLQ
165 |  | 237 | 77 (≈ 105 µM) | 450 (≈ 612 µM) | Cc1nc(F)ccc1[C@@H](c1cn(C23CC(C2)C3)nn1)N(C(=O)OCOC(=O)C1CCN(C)CC1)c1cc(C#N)c2ncc(C#N)c(NCC(C)(C)C)c2c1 [Example 8, (S)-((((1-(bicyclo[1.1.1]pentan-1-yl)-1H-1,2,3-triazol-4-yl)(6-fluoro-2-methylpyridin-3-yl)methyl)(3,8-dicyano-4-(neopentylamino)quinolin-6-yl)carbamoyl)oxy)methyl 1-methylpiperidine-4-carboxylate] | 
< 1 | 1 | 14 | > 1880 | > 1910 | C[C@H](N)C(=O)OCOC(=O)N(c1cc(Cl)c2ncc(C#N)c(NCC(C)(C)C)c2c1)[C@H](c1cn(C23CC(C2)C3)nn1)c1cccc2c(=O)n(C)ccc12 [Example 2, ((((S)-(1-(bicyclo[1.1.1]pentan-1-yl)-1H-1,2,3-triazol-4-yl)(2-methyl-1-oxo-1,2-dihydroisoquinolin-5-yl)methyl)(8-chloro-3-cyano-4-(neopentylamino)quinolin-6-yl)carbamoyl)oxy)methyl L-alaninate] | half-life at 2 μM (Dog plasma stability): 3 min
3 |  |  | 12 | 42 | CC(=O)OCOC(=O)N(c1cc(C#N)c2ncc(C#N)c(NCC(C)(C)C)c2c1)[C@H](c1cn(C23CC(C2)C3)nn1)c1ccc(F)nc1C [Example 7, (S)-((((1-(bicyclo[1.1.1]pentan-1-yl)-1H-1,2,3-triazol-4-yl)(6-fluoro-2-methylpyridin-3-yl)methyl)(3,8-dicyano-4-(neopentylamino)quinolin-6-yl)carbamoyl)oxy)methyl acetate] | 
 |  |  |  |  | Cn1ccc2c([C@@H](c3cn(C45CC(C4)C5)nn3)N(C(=O)OCOP(=O)(O)O)c3cc(Cl)c4ncc(C#N)c(NCC(C)(C)C)c4c3)cccc2c1=O [Compound B] | AUC0-72 h of the named analyte in plasma [1, 3]: BLQ
 |  |  |  |  | Cc1nc(F)ccc1[C@@H](c1cn(C23CC(C2)C3)nn1)N(C(=O)OCOP(=O)(O)O)c1cc(C#N)c2ncc(C#N)c(N[C@H](C)C(C)(C)C)c2c1 [Example 10, (Phosphonooxy)methyl ((S)-(1-(bicyclo[1.1.1]pentan-1-yl)-1H-1,2,3-triazol-4-yl)(6-fluoro-2-methylpyridin-3-yl)methyl)(3,8-dicyano-4-(((R)-3,3-dimethylbutan-2-yl)amino)quinolin-6-yl)carbamate] | half-life at 2 μM (Human GI S9 stability; s9): 26 min; half-life at 2 μM (Dog GI S9 stability; s9): 20 min
 |  |  |  |  | Cc1nc(F)ccc1[C@@H](c1cn(C23CC(C2)C3)nn1)N(C(=O)OCOP(=O)(O)O)c1cc(C#N)c2ncc(C#N)c(NCC(C)(C)C)c2c1 [Example 6, (Phosphonooxy)methyl (S)-((1-(bicyclo[1.1.1]pentan-1-yl)-1H-1,2,3-triazol-4-yl)(6-fluoro-2-methylpyridin-3-yl)methyl)(3,8-dicyano-4-(neopentylamino)quinolin-6-yl)carbamate] | half-life at 2 μM (Human GI S9 stability; s9): 25 min; half-life at 2 μM (Dog GI S9 stability; s9): 14 min
789 | 789 |  |  |  | Cc1nc(F)ccc1[C@@H](c1cn(C23CC(C2)C3)nn1)N(C(=O)C(=O)O)c1cc(C#N)c2ncc(C#N)c(N[C@H](C)C(C)(C)C)c2c1 [Example 13, 2-(((S)-(1-(bicyclo[1.1.1]pentan-1-yl)-1H-1,2,3-triazol-4-yl)(6-fluoro-2-methylpyridin-3-yl)methyl)(3,8-dicyano-4-(((R)-3,3-dimethylbutan-2-yl)amino)quinolin-6-yl)amino)-2-oxoacetic acid] | 
789 |  | 1580 | 12 (≈ 18.4 µM) | 52 (≈ 79.8 µM) | COC[C@@H](C)OC(=O)N(c1cc(C#N)c2ncc(C#N)c(NCC(C)(C)C)c2c1)[C@H](c1cn(C23CC(C2)C3)nn1)c1ccc(F)nc1C [Example 9, (R)-1-methoxypropan-2-yl ((S)-(1-(bicyclo[1.1.1]pentan-1-yl)-1H-1,2,3-triazol-4-yl)(6-fluoro-2-methylpyridin-3-yl)methyl)(3,8-dicyano-4-(neopentylamino)quinolin-6-yl)carbamate] | 

SMILES | half-life at 2 μM (Human GI S9 stability; intestinal S9) [min] | half-life at 2 μM (Dog GI S9 stability; intestinal S9) [min] | half-life at 2 μM (Human plasma stability) [min] | solubility at 2.5 h [2, 4] [µg/mL] | solubility at 2.5 h [2, 5] [µg/mL] | also measured
Cn1ccc2c([C@@H](c3cn(C45CC(C4)C5)nn3)N(C(=O)OCCCOP(=O)(O)O)c3cc(Cl)c4ncc(C#N)c(NCC(C)(C)C)c4c3)cccc2c1=O [Example 4, 3-(Phosphonooxy)propyl (S)-((1-(bicyclo[1.1.1]pentan-1-yl)-1H-1,2,3-triazol-4-yl)(2-methyl-1-oxo-1,2-dihydroisoquinolin-5-yl)methyl)(8-chloro-3-cyano-4-(neopentylamino)quinolin-6-yl)carbamate] |  |  |  | 4 (≈ 5.16 µM) | 210 (≈ 271 µM) | half-life at 2 μM (Human GI S9 stability; s9): 21 min; half-life at 2 μM (Dog GI S9 stability; s9): 12 min
Cn1ccc2c([C@@H](c3cn(C45CC(C4)C5)nn3)N(C(=O)OCOP(=O)(O)O)c3cc(Cl)c4ncc(C#N)c(NCC(C)(C)C)c4c3)cccc2c1=O [Example 1, (Phosphonooxy)methyl (S)-((1-(bicyclo[1.1.1]pentan-1-yl)-1H-1,2,3-triazol-4-yl)(2-methyl-1-oxo-1,2-dihydroisoquinolin-5-yl)methyl)(8-chloro-3-cyano-4-(neopentylamino)quinolin-6-yl)carbamate] | 43 | 26 | 369 | > 1580 | > 2170 | half-life at 2 μM (Dog plasma stability): 278 min
